Assay results published in PMC5458211, “Mitochondrial VDAC1-based peptides: Attacking oncogenic properties in glioblastoma” (Oncotarget, 2017).

Key:
U-87MG cells = test: Apoptosis by FITC-Annexin V/PI staining and flow cytometry, U-87MG; assay type: cell-based, human; conditions: 3 h at 37°C, Fig 6G-H
Description: Sections were also hematoxylin-stained and visualized by microscopy. B. Tissue lysates obtained from controls and several TF-D-LP4-TTs were immunoblotted for Nestin, Sox2, NGFR, CD133, and Klf4. C. Quantitative analysis of immunoblots is shown (n=2-4). D. Immunoblot analysis of, Klf4, Sox2, Nestin and Musashi expression in U-87MG and G7 cell lines, using specific antibodies. E. Quantitative analysis of immunoblots. […] G. G7 (·) and U-87MG cells (○) (2×10^5) were incubated for 3 h with the DMSO (0.15%) or with the indicated concentration of Retro-Tf-D-LP4 peptide in serum-free growth medium at 37°C and then subjected to FITC-Annexin V/PI staining and flow cytometry analysis. H. Representative FACS analysis of DMSO- (left) and 5 μM of Retro-Tf-D-LP4- (right) treated G7 or U-87MG cells.
Cells (6×10^5 /ml) were incubated in 500 μl serum-free medium with the peptide of interest for 6 h at 37°C in the presence of 5% CO2. The cells were then trypsinized, centrifuged (1500xg, 5 min), washed with PBS and analyzed for cell death using propidium iodide (PI) staining and flow cytometer (Beckton-Dickinson, San Jose, CA) and BD CellQuest Pro software. Apoptotic cell death was also analyzed by PI and annexin V-FITC staining, and by acridine orange and ethidium bromide staining and light microscopy (Olympus LX2-KSP).

[1] = system: mice bearing U-87MG intracranial xenografts; test: Survival (Kaplan-Meier) in U-87MG intracranial xenograft; assay type: in vivo, human U-87MG in nude mice; conditions: 10 mg/kg i.v., treatment ended day 46 post-inoculation
Description: B. U-87MG cells (2×10^5) were incubated for 12 h with the indicated concentrations of DMSO, Retro-Tf-D-LP4 peptide (Pep), or Retro-Tf-D-LP4 encapsulated in PLGA nanoparticles (PLGA-Pep). Samples of Retro-Tf-D-LP4 encapsulated in PLGA nanoparticles were centrifuged (15000g, 5 min) to separate the supernatant (Sup), containing free peptide, and the pellet, containing encapsulated Retro-Tf-D-LP4 peptide. Cell death was analyzed by PI staining and FACS analysis. C. Graphical representation of the orthotopic animal experiment. D. MRI imaging of brains 29 days post-intravenal treatment start with DMSO (1.05%), Retro-Tf-D-LP4 (10 mg/kg) encapsulated in PLGA nanoparticles or Tf-D-Retro-LP4 peptide (10 mg/Kg), as described in Materials and Methods available online in Supplemental information. E. Calculated tumor volumes after 20 (dark grey bars) and 29 (light grey bars) days post-treatment start. Results = mean ± SE (n = 6) (* p<0.05, *** p<0.001). F. Kaplan-Meier survival curves showing statistically significant differences in survival curves between the PBS/DMSO and Retro-Tf-D-LP4 treated mice. […]
For the intracranial-orthotopic xenograft mouse model, U-87MG cells (8×10^4) were engrafted into a nude mouse brain using a stereotactic device. […] Tumor volume was analyzed using VivoQuant 2.10 software.

## CC[C@H](C)[C@H](NC(=O)[C@H](Cc1ccc(O)cc1)NC(=O)[C@@H]1CCCN1C(=O)[C@H](CCCNC(=N)N)NC(=O)[C@H](Cc1c[nH]cn1)NC(=O)[C@H](CO)NC(=O)[C@H](Cc1c[nH]c2ccccc12)NC(=O)[C@@H](NC(=O)[C@H](Cc1c[nH]c2ccccc12)NC(=O)[C@H](CCC(=O)O)NC(=O)[C@@H](CCCCN)NC(=O)[C@@H](CCCCN)NC(=O)[C@@H](CC(C)C)NC(=O)[C@@H](CCC(=O)O)NC(=O)[C@H](NC(=O)[C@@H](C)NC(=O)[C@H](NC(=O)[C@@H](CC(N)=O)NC(=O)[C@@H](CC(C)C)NC(=O)[C@@H](C)NC(=O)[C@@H](Cc1c[nH]c2ccccc12)NC(=O)[C@H](NC(=O)[C@@H](C)NC(=O)CNC(=O)[C@@H](CC(N)=O)NC(=O)[C@@H](CO)NC(=O)[C@@H](CC(N)=O)NC(=O)[C@H](CCCCN)NC(=O)[C@H](Cc1c[nH]c2ccccc12)NC(=O)[C@@H](NC(=O)[C@H](Cc1c[nH]c2ccccc12)NC(=O)[C@@H](N)CCCCN)[C@@H](C)O)[C@H](C)O)C(C)C)[C@H](C)O)[C@@H](C)O)C(=O)N[C@@H](C)C(=O)N[C@@H](Cc1c[nH]cn1)C(=O)O [Retro-Tf-D-LP4]
U-87MG cells
  apoptosis of U-87MG cells: induces apoptosis
[1]
  prolongation of survival relative to untreated mice: over 60 days
[1]; followed another 46 days, untreated all died by day 32
  mice with prolonged survival: 40%
